Source: PMC7413254 (Nature Communications, 2020)

Columns and labels:
PfCRT^3D7 = PfCRT^3D7 (Plasmodium falciparum, UniProt Q8IBZ9); assay: cell-based; assay type: cell-based; conditions: PfCRT3D7 oocytes, normalised to oocyte type control
Procedure, shortened: (§1)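 Transport measured in Xenopus oocytes expressing the transporters, 1.5 h at 27.5 °C in ND96 pH 5.5 unless noted. For trans-stimulation, VF-6 injected in 25 nL ND96 at pH 5.0–7.0 or Na^+-free (choline) buffer; intracellular levels based on ~400 nL oocyte volume. Ten oocytes per treatment, ≥4 experiments.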

PfCRT^Ecu1110 [1] = biological target: T1, PfCRT^Ecu1110 (Plasmodium falciparum, UniProt Q9N623, A220S/I356L/K76T/N326D); assay: cell-based; assay type: cell-based; conditions: for PfCRT-mediated [3H]CQ transport, trans-stimulation (% PfCRTEcu1110 control): PfCRTEcu1110 oocytes, normalised to oocyte type control; for [3H]CQ transport (% PfCRTDd2 control), trans-stimulation, PfCRTEcu1110: PfCRT-mediated component (background subtracted), sheet title says normalised to PfCRTDd2 control, mean ± SEM, SEM
Procedure, shortened: as §1

PfCRT^Dd2 [2] = biological target: T2, PfCRT^Dd2 (Plasmodium falciparum, UniProt Q9N623, A220S/I356T/K76T/M74I/N326S/N75E/Q271E/R371I); assay: cell-based; assay type: cell-based; conditions: for PfCRT-mediated [3H]CQ transport, trans-stimulation (% PfCRTDd2 control): PfCRTDd2 oocytes, normalised to oocyte type control; for [3H]CQ transport (% PfCRTDd2 control), trans-stimulation, PfCRTDd2: PfCRT-mediated component (background subtracted), mean ± SEM, SEM
Procedure, shortened: as §1

PfCRT = assay: Potential co-substrates tested for influx of VF-6 via PfCRT into the oocyte; assay type: cell-based, Plasmodium falciparum; set-up: key: X: Compounds that have been tested as potential co-substrates but are not required for influx of VF-6 via PfCRT into the oocyte
PfCRT^Ecu1110 [3] = biological target: T1, PfCRT^Ecu1110; assay: [3H]CQ uptake into Xenopus oocytes, cis-inhibition by unlabelled solute; assay type: cell-based; conditions: for PfCRT-mediated [3H]CQ transport, cis-inhibition (% PfCRTEcu1110 control): PfCRTEcu1110 oocytes, background [3H]CQ accumulation subtracted, normalised to oocyte type control; for [3H]CQ transport (% PfCRTEcu1110 control), cis-inhibition, PfCRTEcu1110: PfCRT-mediated component (background subtracted), sheet title says normalised to PfCRTDd2 control, mean ± SEM, SEM
Procedure, shortened: (§2)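 Radioactivity accumulated per oocyte, read by liquid scintillation after 10% SDS lysis, served as the uptake measure. Incubations ran 1.5 h at 27.5 °C in ND96 at pH 5.5, matching digestive-vacuole acidity.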

PfCRT^Dd2 [4] = biological target: T2, PfCRT^Dd2; assay: as above; assay type: cell-based; conditions: PfCRTDd2 oocytes, background [3H]CQ accumulation subtracted, normalised to oocyte type control
Procedure, shortened: as §2

[5] = [test solute]i = 5 mM (intracellular)
[6] = [test solute]i = 45 mM (intracellular; 30 mM for some solutes due to solubility)
[7] = [test solute]i = 5 mM (injected)
[8] = [test solute]i = 45 mM (30 mM for some solutes due to solubility)

T1 sequence (Q9N623 whole entry A220S/I356L/K76T/N326D): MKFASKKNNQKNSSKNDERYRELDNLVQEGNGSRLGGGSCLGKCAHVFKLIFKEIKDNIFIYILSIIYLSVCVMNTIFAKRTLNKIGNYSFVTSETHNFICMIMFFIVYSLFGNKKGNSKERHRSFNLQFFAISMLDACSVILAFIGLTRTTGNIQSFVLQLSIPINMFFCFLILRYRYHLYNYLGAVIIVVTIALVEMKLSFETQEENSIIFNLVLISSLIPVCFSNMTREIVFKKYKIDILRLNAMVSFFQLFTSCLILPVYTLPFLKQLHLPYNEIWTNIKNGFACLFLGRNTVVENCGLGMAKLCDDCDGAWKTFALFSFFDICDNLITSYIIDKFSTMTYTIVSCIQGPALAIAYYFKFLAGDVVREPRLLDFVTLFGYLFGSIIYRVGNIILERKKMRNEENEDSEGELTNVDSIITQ
T2 sequence (Q9N623 whole entry A220S/I356T/K76T/M74I/N326S/N75E/Q271E/R371I): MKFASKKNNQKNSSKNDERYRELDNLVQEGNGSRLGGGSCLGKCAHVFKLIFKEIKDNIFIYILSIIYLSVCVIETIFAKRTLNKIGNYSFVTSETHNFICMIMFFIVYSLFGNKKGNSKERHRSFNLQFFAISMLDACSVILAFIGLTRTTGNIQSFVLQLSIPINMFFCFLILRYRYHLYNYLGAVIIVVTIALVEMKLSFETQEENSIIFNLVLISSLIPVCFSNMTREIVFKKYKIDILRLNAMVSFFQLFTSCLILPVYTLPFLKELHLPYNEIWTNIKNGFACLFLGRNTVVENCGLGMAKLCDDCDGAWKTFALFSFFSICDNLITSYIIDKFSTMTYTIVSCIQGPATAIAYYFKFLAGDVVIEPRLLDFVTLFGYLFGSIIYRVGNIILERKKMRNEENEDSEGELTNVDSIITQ
Sequence of PfCRT^3D7 (Q8IBZ9 59-398): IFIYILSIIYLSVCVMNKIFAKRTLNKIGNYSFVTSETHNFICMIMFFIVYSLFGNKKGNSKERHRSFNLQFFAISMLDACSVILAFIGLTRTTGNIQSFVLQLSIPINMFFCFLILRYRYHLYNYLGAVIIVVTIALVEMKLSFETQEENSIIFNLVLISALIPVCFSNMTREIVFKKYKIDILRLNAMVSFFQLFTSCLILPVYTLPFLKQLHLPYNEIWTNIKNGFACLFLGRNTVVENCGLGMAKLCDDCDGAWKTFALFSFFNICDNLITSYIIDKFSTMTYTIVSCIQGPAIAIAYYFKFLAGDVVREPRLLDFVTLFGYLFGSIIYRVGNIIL

| Substance | PfCRT-mediated [3H]CQ transport, trans-stimulation (% PfCRT3D7 control) (PfCRT^3D7; [5]) | PfCRT-mediated [3H]CQ transport, trans-stimulation (% PfCRT3D7 control) (PfCRT^3D7; [6]) | PfCRT-mediated [3H]CQ transport, trans-stimulation (% PfCRTEcu1110 control) (PfCRT^Ecu1110 [1]; [5]) | PfCRT-mediated [3H]CQ transport, trans-stimulation (% PfCRTEcu1110 control) (PfCRT^Ecu1110 [1]; [6]) | [3H]CQ transport (% PfCRTDd2 control), trans-stimulation, PfCRTEcu1110 (PfCRT^Ecu1110 [1]; [7]) | [3H]CQ transport (% PfCRTDd2 control), trans-stimulation, PfCRTEcu1110 (PfCRT^Ecu1110 [1]; [8]) | PfCRT-mediated [3H]CQ transport, trans-stimulation (% PfCRTDd2 control) (PfCRT^Dd2 [2]; [5]) | PfCRT-mediated [3H]CQ transport, trans-stimulation (% PfCRTDd2 control) (PfCRT^Dd2 [2]; [6]) | [3H]CQ transport (% PfCRTDd2 control), trans-stimulation, PfCRTDd2 (PfCRT^Dd2 [2]; [7]) | [3H]CQ transport (% PfCRTDd2 control), trans-stimulation, PfCRTDd2 (PfCRT^Dd2 [2]; [8]) | Tested as potential co-substrate but not required for influx of VF-6 via PfCRT into the oocyte (PfCRT) | PfCRT-mediated [3H]CQ transport, cis-inhibition (% PfCRTEcu1110 control) (PfCRT^Ecu1110 [3]; [test solute] = 0.5 mM) | PfCRT-mediated [3H]CQ transport, cis-inhibition (% PfCRTEcu1110 control) (PfCRT^Ecu1110 [3]; [test solute] = 1 mM) | PfCRT-mediated [3H]CQ transport, cis-inhibition (% PfCRTEcu1110 control) (PfCRT^Ecu1110 [3]; [test solute] = 2 mM) | [3H]CQ transport (% PfCRTEcu1110 control), cis-inhibition, PfCRTEcu1110 (PfCRT^Ecu1110 [3]; [test solute] = 2 mM) | PfCRT-mediated [3H]CQ transport, cis-inhibition (% PfCRTDd2 control) (PfCRT^Dd2 [4]; [test solute] = 0.5 mM) | PfCRT-mediated [3H]CQ transport, cis-inhibition (% PfCRTDd2 control) (PfCRT^Dd2 [4]; [test solute] = 1 mM) | PfCRT-mediated [3H]CQ transport, cis-inhibition (% PfCRTDd2 control) (PfCRT^Dd2 [4]; [test solute] = 2 mM) | [3H]CQ transport (% PfCRTEcu1110 control), cis-inhibition, PfCRTEcu1110 (PfCRT^Ecu1110 [3]; [test solute] = 0.5 mM) |
| --- | --- | --- | --- | --- | --- | --- | --- | --- | --- | --- | --- | --- | --- | --- | --- | --- | --- | --- | --- |
| DPVNF [DF-5] | 128 ± 3.1 % PfCRT3D7 control | 158 ± 4.2 % PfCRT3D7 control | 120 ± 2.4 % PfCRTEcu1110 control | 128 ± 2.9 % PfCRTEcu1110 control | 36 ± 1.3 % PfCRTEcu1110 control | 39 ± 1.8 % PfCRTEcu1110 control | 101 ± 3.5 % PfCRTDd2 control | 113 ± 1.2 % PfCRTDd2 control | 101 ± 3.5 % PfCRTDd2 control | 113 ± 1.2 % PfCRTDd2 control | X | 40 ± 2.1 % PfCRTEcu1110 control | 32 ± 1.6 % PfCRTEcu1110 control | 21 ± 1.0 % PfCRTEcu1110 control | 7.0 ± 0.1 % PfCRTEcu1110 control | 38 ± 3.1 % PfCRTDd2 control | 27 ± 0.9 % PfCRTDd2 control | 15 ± 0.5 % PfCRTDd2 control | – |
| VDPVN [VN-5] | 131 ± 4.6 % PfCRT3D7 control | 181 ± 5.7 % PfCRT3D7 control | 128 ± 3.6 % PfCRTEcu1110 control | 136 ± 3.5 % PfCRTEcu1110 control | 39 ± 1.5 % PfCRTEcu1110 control | 41 ± 1.9 % PfCRTEcu1110 control | 101 ± 3.5 % PfCRTDd2 control | 112 ± 1.4 % PfCRTDd2 control | 101 ± 3.5 % PfCRTDd2 control | 112 ± 1.4 % PfCRTDd2 control | X | 52 ± 1.8 % PfCRTEcu1110 control | 38 ± 2.6 % PfCRTEcu1110 control | 27 ± 0.5 % PfCRTEcu1110 control | 9.0 ± 0.2 % PfCRTEcu1110 control | 42 ± 2.7 % PfCRTDd2 control | 30 ± 3.0 % PfCRTDd2 control | 19 ± 0.3 % PfCRTDd2 control | 16 ± 0.4 % PfCRTEcu1110 control |
